# Assay results taken from BindingDB's records for PubMed 30795990 (n/a, 2019).
# Target: Cyclin-dependent kinase 11B (Homo sapiens) (UniProt P21127)
# Assay: Inhibition of GST-tagged human recombinant CDK11 (1 to 795 residues) expressed in baculovirus expression system
# Cyclin-dependent kinase 11B (Homo sapiens), sequence (P21127 whole entry, looked up, the tested form may be a part): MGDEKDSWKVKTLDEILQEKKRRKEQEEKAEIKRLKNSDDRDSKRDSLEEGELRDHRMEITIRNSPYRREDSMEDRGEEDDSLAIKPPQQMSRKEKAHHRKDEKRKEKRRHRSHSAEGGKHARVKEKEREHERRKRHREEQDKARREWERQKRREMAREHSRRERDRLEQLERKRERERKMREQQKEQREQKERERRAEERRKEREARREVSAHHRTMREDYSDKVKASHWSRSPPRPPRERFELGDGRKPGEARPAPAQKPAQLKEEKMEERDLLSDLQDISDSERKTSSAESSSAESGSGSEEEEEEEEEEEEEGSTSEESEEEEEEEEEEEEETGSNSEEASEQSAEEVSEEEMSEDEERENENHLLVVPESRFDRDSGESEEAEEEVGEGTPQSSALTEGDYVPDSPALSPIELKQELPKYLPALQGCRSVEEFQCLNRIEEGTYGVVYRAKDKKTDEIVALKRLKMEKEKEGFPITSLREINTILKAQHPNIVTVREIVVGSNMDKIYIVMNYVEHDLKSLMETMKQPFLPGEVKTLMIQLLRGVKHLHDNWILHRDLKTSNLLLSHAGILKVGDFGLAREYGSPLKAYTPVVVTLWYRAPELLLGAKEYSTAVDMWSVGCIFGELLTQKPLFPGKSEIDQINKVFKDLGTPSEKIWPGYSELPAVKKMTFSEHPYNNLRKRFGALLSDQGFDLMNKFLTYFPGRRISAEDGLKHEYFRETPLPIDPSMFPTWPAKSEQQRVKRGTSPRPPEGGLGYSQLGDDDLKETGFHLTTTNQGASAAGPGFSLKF
compound,measurement,value
O=C(c1ccc2c(c1)OCCO2)C1CCN(c2ncnc3sccc23)CC1,IC50,> 1000 nM
